From patent publication US9102637B2, “Bicyclic thiazole compounds” (CARNA BIOSCIENCES INC., priority 2013, dated 2015)

Key:
[1] = target: human TNIK (N-terminal segment, TNIK_N, residues 1-314) (Homo sapiens (Human), UniProt Q9UKE5); test: TNIK kinase assay (mobility shift); format: biochemical; details: TNIK_N kinase activity, 25 μM ATP, 1 h at room temperature
In short: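 GST-tagged human TNIK residues 1-314 (Sf21 baculovirus) at 0.08 ng/μl phosphorylated 1 μM FITC-peptide with 25 μM ATP. Buffer: 20 mM Hepes pH 7.5, 5 mM MgCl2, 2 mM DTT, 1% DMSO; 1 h at room temperature, stopped with EDTA. Mobility-shift detection; activity = P/(P+S).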

[2] = system: human colon cancer cell line HCT-116; test: In vitro cell proliferation assay; format: cell-based; details: HCT-116 cell number, 72 hours of treatment
Description: In Vitro Cell Proliferation Assay
The human colon cancer cell line HCT-116 was seeded at 600 cells/well in 96 well-plate (ThermoFisher) using RPMI medium containing 2 mM L-glutamine (Invitrogen) supplemented with 10% FCS (Invitrogen) and 1% penicillin/streptomycin (Sigma) and maintained at 37° C., 5% CO2 and 100% humidity. The following day, old medium was withdrawn and the fresh medium was added. Initial numbers of cells were counted before adding compounds. Then cells were treated in duplicates with compounds (a half-logarithmic serial dilution from 10 μM). Eight untreated control wells were incubated in each plate. After 72 hours of treatment, cells were fixed with 2% paraformaldehyde, and the nucleus were stained with Hoechst 33258 (Invitrogen). The numbers of cells were counted with ArrayScan™ VTI (ThermoFisher Scientific).

Sequence of human TNIK (N-terminal segment, TNIK_N, residues 1-314) (Q9UKE5 1-314): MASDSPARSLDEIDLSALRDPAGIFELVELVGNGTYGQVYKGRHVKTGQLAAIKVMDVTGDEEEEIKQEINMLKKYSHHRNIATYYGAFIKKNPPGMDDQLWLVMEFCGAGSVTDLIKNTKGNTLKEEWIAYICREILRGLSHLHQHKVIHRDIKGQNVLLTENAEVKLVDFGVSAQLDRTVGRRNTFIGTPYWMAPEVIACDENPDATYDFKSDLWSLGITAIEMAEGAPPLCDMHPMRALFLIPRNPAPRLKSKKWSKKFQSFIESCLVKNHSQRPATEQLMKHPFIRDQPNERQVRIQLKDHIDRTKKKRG

| Structure (SMILES) | IC50 [1] | IC50 [2] |
| --- | --- | --- |
| NC(=O)c1nc(Nc2ccc3ccccc3c2)sc1NC(=O)c1ccc(NCCN2CCCCC2)cc1 [Example 13, 2-(naphthalen-2-ylamino)-5-{4-[2-(piperidin-1-yl)ethylamino]benzamido}thiazole-4-carboxamide] | 8 nM | < 100 nM |
| CC(=O)Nc1ccc(C(=O)Nc2sc(Nc3ccc4ccccc4c3)nc2C(N)=O)cc1 [Example 2, 5-(4-acetamidobenzamido)-2-(naphthalen-2-ylamino)thiazole-4-carboxamide] | 19.8 nM | < 100 nM |
| NC(=O)c1nc(Nc2ccc3ccccc3c2)sc1NC(=O)c1ccc(CN2CCOCC2)cc1 [Example 18, 5-[4-(morpholinomethyl)benzamido]-2-(naphthalen-2-ylamino)thiazole-4-carboxamide] | 8.6 nM | < 100 nM |
| CN1CCN(c2ccc(C(=O)Nc3sc(Nc4cccc5ncccc45)nc3C(N)=O)cc2)CC1 [Example 26, 5-[4-(4-methylpiperazin-1-yl)benzamido]-2-(quinolin-5-ylamino)thiazole-4-carboxamide] | 15.6 nM | 1000 to 10000 nM |
| CN1CCN(Cc2ccc(C(=O)Nc3sc(Nc4ccc5ccccc5c4)nc3C(N)=O)cc2)CC1 [Example 17, 5-{4-[(4-methylpiperazin-1-yl)methyl]benzamido}-2-(naphthalen-2-ylamino)thiazole-4-carboxamide] | 5.1 nM | < 100 nM |
| NC(=O)c1nc(Nc2ccc3ccccc3c2)sc1NC(=O)c1ccc(NCCO)cc1 [Example 10, 5-[4-(2-hydroxyethylamino)benzamido]-2-(naphthalen-2-ylamino)thiazole-4-carboxamide] | 10.6 nM | < 100 nM |
| CN(C)CCNc1ccc(C(=O)Nc2sc(Nc3ccc4ccccc4c3)nc2C(N)=O)cc1 [Example 11, 5-{4-[2-(dimethylamino)ethylamino]benzamido}-2-(naphthalen-2-ylamino)thiazole-4-carboxamide] | 8.6 nM | < 100 nM |
| CN1CCN(c2ccc(C(=O)Nc3sc(Nc4ccc5ccccc5c4)nc3C(N)=O)cc2)CC1 [Example 12, 5-[4-(4-methylpiperazin-1-yl)benzamido]-2-(naphthalen-2-ylamino)thiazole-4-carboxamide] | 10.2 nM | 100 to 1000 nM |
| NCc1ccc(C(=O)Nc2sc(Nc3ccc4ccccc4c3)nc2C(N)=O)cc1 [Example 23, 5-(4-aminomethylbenzamido)-2-(naphthalen-2-yl-amino)thiazole-4-carboxamide] | 5.3 nM | 100 to 1000 nM |
| NC(=O)c1nc(Nc2ccc3ccccc3c2)sc1NC(=O)c1ccc(N)cc1 [Example 16, 5-(4-aminobenzamido)-2-(naphthalen-2-ylamino) thiazole-4-carboxamide] | 20.3 nM | < 100 nM |
| CN1CCN(c2ccc(C(=O)Nc3sc(Nc4ccc5ncccc5c4)nc3C(N)=O)cc2)CC1 [Example 24, 5-[4-(4-methylpiperazin-1-yl)benzamido]-2-(quinolin-6-ylamino)thiazole-4-carboxamide] | 4.1 nM | 1000 to 10000 nM |
| NC(=O)c1nc(Nc2ccc3ccccc3c2)sc1NC(=O)c1ccc(N2CCOCC2)cc1 [Example 15, 5-(4-morpholinobenzamido)-2-(naphthalen-2-yl-amino)thiazole-4-carboxamide] |  | < 100 nM |

Further lines, results first:

| IC50 [1] | IC50 [2] | Structure (SMILES) |
| --- | --- | --- |
| 5.9 nM | < 100 nM | NC(=O)c1nc(Nc2ccc3ccccc3c2)sc1NC(=O)c1ccc(Cn2cnnn2)cc1 [Example 205, 5-(4-[(1H-tetrazol-1-yl)methyl)benzamido]-2-(naphthalen-2-ylamino)thiazole-4-carboxamide] |
| 22.7 nM | 100 to 1000 nM | NC(=O)c1nc(Nc2ccc3ccccc3c2)sc1NC(=O)c1cc2sccc2[nH]1 [Example 35, N-[4-carbamoyl-2-(naphthalen-2-ylamino)thiazol-5-yl]-4H-thieno[3,2-b]pyrrole-5-carboxamide] |
| 3 nM | < 100 nM | NC(=O)c1nc(Nc2ccc3ccccc3c2)sc1NC(=O)c1ccc(Cn2ccnc2)cc1 [Example 208, 5-{4-[(1H-imidazol-1-yl)methyl]benzamido}-2-(naphthalen-2-ylamino)thiazole-4-carboxamide] |
| 17 nM | 100 to 1000 nM | CN1CCN(c2ccc(C(=O)Nc3sc(N(C)c4ccc5ncccc5c4)nc3C(N)=O)cc2)CC1 [Example 28, 2-[methyl(quinolin-6-yl)amino]-5-[4-(4-methylpiperazin-1-yl]benzamido)thiazole-4-carboxamide] |
| 12.7 nM | 1000 to 10000 nM | CC(C)=CC(=O)Nc1sc(Nc2ccc3ccccc3c2)nc1C(N)=O [Example 83, 5-(3-methylbut-2-enamido)-2-(naphthalen-2-yl-amino)thiazole-4-carboxamide] |
| 12 nM | 100 to 1000 nM | NC(=O)c1nc(Nc2ccc3cnccc3c2)sc1NC(=O)c1ccsc1 [Example 46, 2-(isoquinolin-6-ylamino)-5-(thiophene-3-carbox-amido)thiazole-4-carboxamide] |
| 36.3 nM | 1000 to 10000 nM | CN1CCN(c2ccc(C(=O)Nc3sc(N(C)c4ccc5ccccc5c4)nc3C(N)=O)cc2)CC1 [Example 65, 2-[methyl(naphthalen-2-yl)amino]-5-[4-(4-methyl-piperazin-1-yl)benzamido]thiazole-4-carboxamide] |
| 2.5 nM | < 100 nM | NC(=O)c1nc(Nc2ccc3ccccc3c2)sc1NC(=O)c1ccc(Cn2cncn2)cc1 [Example 195, 5-{4-[(1H-1,2,4-triazol-1-yl)methyl]benzamido}-2-(naphthalen-2-ylamino)thiazole-4-carboxamide] |
| 19.1 nM | 1000 to 10000 nM | CN1CCN(c2ccc(C(=O)Nc3sc(Nc4cccc5cccnc45)nc3C(N)=O)cc2)CC1 [Example 27, 5-[4-(4-methylpiperazin-1-yl)benzamido]-2-(quinolin-8-ylamino)thiazole-4-carboxamide] |
| 12.7 nM | < 100 nM | NC(=O)c1nc(Nc2ccc3ccccc3c2)sc1NC(=O)c1ccc(N2CCC(O)CC2)cc1 [Example 97, 5-[4-(4-hydroxypiperidin-1-yl)benzamido]-2-(naphthalen-2-ylamino)thiazole-4-carboxamide] |
|  | 1000 to 10000 nM | NC(=O)c1nc(Nc2ccnc3ccccc23)sc1NC(=O)c1csc(CN2CCOCC2)c1 [Example 67] |
